{
  "source": "patent US12496301B2",
  "about": "“Use of androgen receptor degrader for the treatment of spinal and bulbar muscular atrophy” (Arvinas Operations, Inc., priority 2023, dated 2025)",
  "key": {"[1]": {"test": "Efficacy in hAR100Q murine model of SBMA (body weight, grip strength, treadmill, survival)", "format": "in vivo, mouse", "text": "(§1) Male mice harboring approximately 73±14 copies of full-length human AR harboring 100 CAG repeats in exon 1 (hAR100Q) (“hAR100Q mice”) were used in this study. hAR100Q mice were obtained from mice (C57BL/6J background) expressing heterozygous human […] AR100Q (AR100Q+/−) under the control of the cytomegalovirus immediate-early enhancer and the chicken beta-actin (pCAGGS) promoter. These transgenic lines were maintained, and the colony expanded by breeding with C57BL/6J (Jackson Laboratory) wild-type (WT) mice.\n(§2) A total of […] hAR100Q and 20 littermate controls were used for this study. Each genotype was divided into two groups of 10 (control vs Compound A) giving a total of four separate groups (WT control, WT Compound A, hAR100Q control, and hAR100Q Compound A). All mice were fed control chow beginning at 4 weeks of age. At 5 weeks of age, treated groups were switched to Compound A-formulated chow and the remaining mice were fed control chow. Body weights were recorded weekly starting at 5 weeks of age.\n(§3) Compound A was formulated at 100 parts per million (ppm) Compound A in rodent chow (Purina #5015). This dose level (100 ppm) approximates a 15 mg/kg dose for a mouse that weighs 20 g and consumes 3 g of chow per day. For control chow, rodent chow (Purina #5015) was re-pelleted in an identical manner to the Compound A-formulated chow.\n(§4) A grip strength apparatus was utilized to measure the force exerted by the forepaws only, or all four paws of mice once per week beginning at 7 weeks of age. The apparatus was placed on a sturdy flat lab bench and the apparatus's grid wire mesh was used for all four paws. Individual mice grasped a wire mesh (all four paws) and were gently pulled by the base of their tail to measure their maximum force exerted to maintain their grip. The grip strength assay was conducted 6 times per mouse, for all four paws.\n(§5) A Touchscreen Treadmill was utilized to analyze length of time running at increasing speeds until exhaustion. Individual mice ran on a flat treadmill with a graded acceleration protocol consisting of 10 meters (m)/min. for the first 40 min., with the speed increasing thereafter by increments of 1 m/min. every 10 min. for 30 min., and then finally increasing speed by increments of 1 m/min. every 5 min. until the mice were exhausted. The exhaustion was determined by 5 consecutive seconds or 20 overall seconds of failure to exercise (by staying on shock rods at the start of the treadmill). Treadmill training was performed for 2 days before the first week of testing. The training protocol on day 1 consisted of 5 min. at 8 m/min, while day 2 consisted of 5 min. at 8 m/min. followed by 5 min. at 10 m/min.\n(§6) In the murine model of SBMA used here (hereafter referred to as hAR100Q mice), which also expresses endogenous mouse AR, approximately 73±14 copies of full-length human AR with 100 CAG repeats (hAR100Q) are driven by the pCAGGS promoter (Chivet, M. et al. 2020, Cells 9, 325). Heterologous expression of hAR100Q results in muscle atrophy, motor deficits, and premature death (Chivet, M. et al. 2020, Cells 9, 325). Symptom onset starts as early as 8 weeks of age and get progressively worse until week 13-14, at which time mice are euthanized because of extreme immobility. In this study, male hAR100Q mice and littermate controls (10 mice in each group) were fed vehicle chow or Compound A-formulated chow at an approximate dose of 15 mg/kg. In-diet dosing was used in lieu of PO dosing due to the fragile nature of this disease model. Compound A-formulated chow was introduced at 5 weeks of age. In addition to weekly weight measurements, mice were evaluated using behavioral assays, including weekly grip strength measurements and forced treadmill tests at 11 weeks of age."}, "hAR100Q mice": {"tested_on": "hAR100Q mice", "test": "Efficacy in hAR100Q murine model of SBMA (body weight, grip strength, treadmill, survival)", "format": "in vivo, mouse", "text": "as §1, §2, §3, §4, §5, §6"}, "endogenous mouse AR": {"biological_target": "T1, endogenous mouse AR (Mus musculus, UniProt P19091)", "T1 construct": "from tissue; host or cells: mouse LABC muscle (C57Bl/6 and hAR100Q mice); quadriceps (hAR100Q mice)", "T1 sequence (P19091 1-899)": "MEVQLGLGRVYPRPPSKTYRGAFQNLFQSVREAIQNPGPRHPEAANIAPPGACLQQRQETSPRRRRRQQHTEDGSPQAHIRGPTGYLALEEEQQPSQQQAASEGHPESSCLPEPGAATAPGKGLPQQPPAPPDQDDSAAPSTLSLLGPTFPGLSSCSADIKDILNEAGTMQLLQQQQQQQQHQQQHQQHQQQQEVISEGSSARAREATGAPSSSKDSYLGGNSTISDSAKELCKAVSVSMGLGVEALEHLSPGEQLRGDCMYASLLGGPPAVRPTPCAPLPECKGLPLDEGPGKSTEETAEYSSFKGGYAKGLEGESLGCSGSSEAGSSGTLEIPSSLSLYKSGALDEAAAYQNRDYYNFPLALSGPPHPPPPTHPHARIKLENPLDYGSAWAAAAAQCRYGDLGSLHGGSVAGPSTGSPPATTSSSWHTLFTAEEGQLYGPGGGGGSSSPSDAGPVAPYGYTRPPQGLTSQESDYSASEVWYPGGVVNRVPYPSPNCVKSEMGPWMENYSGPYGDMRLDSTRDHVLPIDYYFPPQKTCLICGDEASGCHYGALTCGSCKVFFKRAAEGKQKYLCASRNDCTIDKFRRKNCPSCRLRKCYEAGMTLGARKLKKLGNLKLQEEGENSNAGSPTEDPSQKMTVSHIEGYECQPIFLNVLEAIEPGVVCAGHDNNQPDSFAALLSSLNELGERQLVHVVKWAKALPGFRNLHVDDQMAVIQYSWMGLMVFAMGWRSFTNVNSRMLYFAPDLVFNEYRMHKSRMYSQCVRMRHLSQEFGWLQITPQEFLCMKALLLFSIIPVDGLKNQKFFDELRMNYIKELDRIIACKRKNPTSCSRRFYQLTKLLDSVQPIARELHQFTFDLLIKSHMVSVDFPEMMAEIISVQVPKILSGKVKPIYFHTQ", "test": "Endogenous mouse AR degradation in muscle of hAR100Q mice, capillary immunoassay", "format": "in vivo", "experimental": "Mouse endogenous AR, human AR100Q, and high molecular weight hAR100Q from hAR100Q mice were quantified by capillary immunoassay. Tissue lysates were prepared as described above using antibodies to AR and resolved by capillary electrophoresis (ProteinSimple). High molecular weight AR was quantified as the area under the curve (AUC) from 300 to 600 kDa.\nA parallel cohort of hAR100Q mice was maintained in order to evaluate AR degradation at the 11-week timepoint. hAR100Q mice in this tissue cohort were fed chow identical to the mice that underwent muscle strength and endurance tests and were euthanized at 11-weeks of age."}, "PDE6D": {"biological_target": "T2, PDE6D (Homo sapiens, UniProt O43924)", "T2 construct": "endogenous in cells; host or cells: SBMA hiPSC-derived myotubes", "T2 sequence (O43924 whole entry)": "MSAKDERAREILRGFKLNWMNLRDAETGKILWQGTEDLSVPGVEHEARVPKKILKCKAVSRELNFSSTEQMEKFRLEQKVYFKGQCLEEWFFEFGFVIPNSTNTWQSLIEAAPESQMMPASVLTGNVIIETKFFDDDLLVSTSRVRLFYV", "test": "Global proteomics / Western blot in SBMA hiPSC-myotubes: neosubstrate PDE6D", "format": "cell-based", "details": "hiPSC-myotubes, data not shown", "text": "(FIG. 12A). […] (FIG. 12C)."}, "[2]": {"test": "Free fraction in mouse plasma", "format": "in vitro ADME"}},
  "data": [
    {"smiles": "CC(C)N(CC1CCN(c2ncc(C(=O)N[C@H]3C(C)(C)[C@H](Oc4ccc(C#N)c(Cl)c4)C3(C)C)cn2)CC1)[C@H]1C[C@H](Oc2ccc3c(c2)C(=O)N(C2CCC(=O)NC2=O)C3=O)C1", "note": "(some centres unmarked) [Compound A, N-((1r,3r)-3-(3-chloro-4-cyanophenoxy)-2,2,4,4-tetramethylcyclobutyl)-2-(4-((((1r,3r)-3-((2-(2,6-dioxopiperidin-3-yl)-1,3-dioxoisoindolin-5-yl)oxy)cyclobutyl)(isopropyl)amino)methyl)piperidin-1-yl)pyrimidine-5-carboxamide]", "values": [
      {"measurement": "all paw grip strength in WT littermates", "setting": "[1]; WT littermates, chow approx. 15 mg/kg, vs vehicle", "value": "similar"},
      {"measurement": "muscle endurance, forced treadmill distance, WT littermates", "setting": "[1]; WT littermates, week 11, vehicle versus compound chow", "value": "No differences were observed"},
      {"measurement": "body weight over time in WT littermates", "setting": "[1]; male WT littermates, formulated chow approx. 15 mg/kg", "value": "no impact"},
      {"measurement": "median lifespan", "setting": "hAR100Q mice; hAR100Q mice, formulated chow, birth to euthanasia", "value": 151, "unit": "days"},
      {"measurement": "muscle endurance, forced treadmill distance, hAR100Q mice", "setting": "hAR100Q mice; hAR100Q mice, week 11, chow approx. 15 mg/kg", "value": "performed as well as WT littermates"},
      {"measurement": "all paw grip strength in hAR100Q mice", "setting": "hAR100Q mice; hAR100Q mice, weekly from 7 weeks, chow approx. 15 mg/kg", "value": "delayed the decline and magnitude of grip strength decline"},
      {"measurement": "body weight over time in hAR100Q mice", "setting": "hAR100Q mice; male hAR100Q mice, formulated chow approx. 15 mg/kg from 5 weeks of age, vs vehicle", "value": "rescued weight loss"},
      {"measurement": "reduction of endogenous mouse (WT) AR in LABC vs vehicle", "setting": "endogenous mouse AR; LABC, 11 weeks of age, chow approx. 15 mg/kg", "value": 77, "unit": "%"},
      {"measurement": "reduction of WT AR in quadriceps vs vehicle", "setting": "endogenous mouse AR; quadriceps", "value": 65, "unit": "%"},
      {"measurement": "reduction of PDE6D by Western blot", "setting": "PDE6D", "value": "~50", "unit": "%"},
      {"measurement": "fraction unbound", "setting": "[2]", "value": 0.0044}
    ]}
  ]
}
